According to patent US12421224B2 (BIOGEN MA INC., priority 2019, dated 2025):
pIC50: −log10 of the molar value.

Target: T1, Recombinant full length human OGA enzyme (Homo sapiens, UniProt O60502)
T1 construct: Recombinant full length human OGA enzyme; purchased Origene
T1 sequence (O60502 1-916): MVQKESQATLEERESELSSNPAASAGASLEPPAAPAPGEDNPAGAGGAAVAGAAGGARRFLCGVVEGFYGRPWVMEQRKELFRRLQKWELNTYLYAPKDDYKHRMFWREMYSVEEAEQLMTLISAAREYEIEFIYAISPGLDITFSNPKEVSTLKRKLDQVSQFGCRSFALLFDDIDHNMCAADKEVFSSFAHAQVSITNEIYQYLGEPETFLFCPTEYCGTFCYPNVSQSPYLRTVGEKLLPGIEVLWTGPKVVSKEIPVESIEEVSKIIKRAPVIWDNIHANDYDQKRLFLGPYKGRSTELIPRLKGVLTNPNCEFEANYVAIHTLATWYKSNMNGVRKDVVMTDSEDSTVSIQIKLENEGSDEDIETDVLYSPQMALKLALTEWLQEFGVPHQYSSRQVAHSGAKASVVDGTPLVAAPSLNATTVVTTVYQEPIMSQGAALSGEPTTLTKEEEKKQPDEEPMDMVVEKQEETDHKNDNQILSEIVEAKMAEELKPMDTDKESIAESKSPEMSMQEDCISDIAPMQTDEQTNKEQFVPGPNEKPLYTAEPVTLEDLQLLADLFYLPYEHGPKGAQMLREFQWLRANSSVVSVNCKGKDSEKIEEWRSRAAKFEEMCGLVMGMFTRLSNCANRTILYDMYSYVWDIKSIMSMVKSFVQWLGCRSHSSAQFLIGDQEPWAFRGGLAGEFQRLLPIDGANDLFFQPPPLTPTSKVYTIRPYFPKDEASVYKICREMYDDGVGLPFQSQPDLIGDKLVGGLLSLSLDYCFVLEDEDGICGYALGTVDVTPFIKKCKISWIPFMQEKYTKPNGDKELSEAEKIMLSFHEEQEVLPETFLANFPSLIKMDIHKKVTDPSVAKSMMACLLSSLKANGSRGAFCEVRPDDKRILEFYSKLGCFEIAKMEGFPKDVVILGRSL
Assay: OGA Enzyme Inhibition Biochemical Assay
Settings: 1 nM OGA, 100 μM 4-MUGlcNAc (Km), pH 6.4, 90 minutes at room temperature, 10-point dose-response starting from 20 μM
Procedure: OGA Enzyme Inhibition Biochemical Assay
Recombinant full length human OGA enzyme was purchased from Origene. 4-MUGlCNAc substrate was purchased from Sigma. All other reagents were purchased from Sigma or Fisher. Assay buffer consists of the Mcllvaine buffer system, pH 6.4 (0.2M Na2HPO4 mixed with 0.1M citric acid) and 0.01% BSA. Reactions consist of 1 nM OGA, 100 μM 4-MUGlcNAc (Km), and compound in a final volume of 10 μl. Reactions were incubated for 90 minutes at room temperature and quenched with […] of 3M glycine, pH 10 and read on a Perkin Elmer Envision plate reader (Ex: 355 nm/Em: 460 nm). Compounds were tested with a 10-point dose-response starting from 20 μM with a 4-fold dilution. Data was fit using GraphPad Prism using a 4-parameter fit with variable slope.

| pIC50 | Compound |
| --- | --- |
| 7.04 | CC(=O)Nc1ncc(CN2CC(NCc3cc(C)nc(C)c3)C2)s1 [Example 3-1, N-(5-((3-(((2,6-dimethylpyridin-4-yl)methyl)amino)azetidin-1-yl)methyl)thiazol-2-yl)acetamide] |
| 6.47 | CC(=O)Nc1ncc(CN2CC(Oc3ccc(C#N)cn3)C2)s1 [Example 2-5, N-(5-((3-((5-cyanopyridin-2-yl)oxy)azetidin-1-yl)methyl)thiazol-2-yl)acetamide] |
| 6.28 | CC(=O)Nc1ncc(CN2CC(Oc3ncc(F)cn3)C2)s1 [Example 2-2] |
| 6.77 | CC(=O)Nc1ncc(CN2C[C@H](Oc3ccc(F)cn3)[C@H]2C)s1 [Example 2-9, N-(5-(((2R,3S)-3-((5-fluoropyridin-2-yl)oxy)-2-methylazetidin-1-yl)methyl)thiazol-2-yl)acetamide] |
| 7.04 | COc1cc(COC2CN(Cc3cnc(NC(C)=O)s3)C2)ccn1 [Example 1-1, N-(5-((3-((2-methoxypyridin-4-yl)methoxy)azetidin-1-yl)methyl)thiazol-2-yl)acetamide] |
| 6.24 | CC(=O)Nc1ncc(CN2C[C@@H](Nc3ccc(C#N)cn3)[C@H]2C)s1 [Example 2-18, N-(5-(((2R,3R)-3-((5-cyanopyridin-2-yl)amino)-2-methylazetidin-1-yl)methyl)thiazol-2-yl)acetamide] |
| 6.80 | COc1cc(OC2CN(Cc3cnc(NC(C)=O)s3)C2)ccn1 [Example 2-3, N-(5-((3-((2-methoxypyridin-4-yl)oxy)azetidin-1-yl)methyl)thiazol-2-yl)acetamide] |
| 6.77 | COc1cc(O[C@@H]2CN(Cc3cnc(NC(C)=O)s3)[C@@H]2C)ccn1 [Example 2-6, N-(5-(((2R,3R)-3-((2-methoxypyridin-4-yl)oxy)-2-methylazetidin-1-yl)methyl)thiazol-2-yl)acetamide] |
| 6.68 | COc1cc(CNC2CN(Cc3cnc(NC(C)=O)s3)C2)ccn1 [Example 3-2, N-(5-((3-(((2-methoxypyridin-4-yl)methyl)amino)azetidin-1-yl)methyl)thiazol-2-yl)acetamide] |
| 6.17 | COc1cc(OCC2CN(Cc3cnc(NC(C)=O)s3)C2)ccn1 [Example 2-23, N-(5-((3-(((2-methoxypyridin-4-yl)oxy)methyl)azetidin-1-yl)methyl)thiazol-2-yl)acetamide] |
| < 7.70 | CC(=O)Nc1ncc(CN2CC(Oc3ncccc3C)C2)s1 [Example 2-4, N-(5-((3-((3-methylpyridin-2-yl)oxy)azetidin-1-yl)methyl)thiazol-2-yl)acetamide] |
| 6.01 | CC(=O)Nc1ncc(CN2C[C@H](Oc3ccc(C#N)cn3)[C@H]2C)s1 [Example 2-32, N-(5-(((2R,3S)-3-((5-cyanopyridin-2-yl)oxy)-2-methylazetidin-1-yl)methyl)thiazol-2-yl)acetamide] |
